This passage reports IC50 results from patent US6908940B2, “Imidazole compounds and their use as adenosine deaminase inhibitors” (Fujisawa Pharmaceutical Co., Ltd., priority 2000, dated 2005).

Where only a bound is given, the exact number is not on record here.

As usually defined, the IC50 is the concentration at which inhibition is half-maximal. Low readings indicate inhibition by little substance, high ones a need for much substance.

The target in this test is T1, Human ADA (Homo sapiens, UniProt P00813).
T1 construct: made in house
T1 sequence (P00813 1-363): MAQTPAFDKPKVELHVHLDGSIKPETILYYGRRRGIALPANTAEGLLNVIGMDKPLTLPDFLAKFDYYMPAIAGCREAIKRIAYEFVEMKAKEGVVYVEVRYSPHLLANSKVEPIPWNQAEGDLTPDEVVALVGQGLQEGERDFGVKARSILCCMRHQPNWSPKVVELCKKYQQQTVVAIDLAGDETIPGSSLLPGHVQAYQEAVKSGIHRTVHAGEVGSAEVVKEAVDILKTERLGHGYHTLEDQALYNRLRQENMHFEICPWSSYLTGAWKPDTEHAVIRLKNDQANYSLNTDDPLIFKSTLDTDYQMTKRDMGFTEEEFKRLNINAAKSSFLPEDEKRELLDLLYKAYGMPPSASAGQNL
Briefly: Adenosine Deaminase (ADA) Enzyme Assay. The test is classed as biochemical. To be noted: 50% inhibition of Vmax vs vehicle; 0.16 μg/ml ADA, 0.1 mM adenosine, phosphate buffer saline pH 7.4, room temperature, decrease in A265 for 3 minutes. How it is done:
Adenosine Deaminase (ADA) Enzyme Assay
• 1-{(2S,3R)-2-hydroxy-5-[2-(3-(4-chlorophenyl)propoxy)-phenyl]-3-pentyl}imidazole-4-carboxamide (Example 8) • 1-[(2S,3R)-2-hydroxy-5-(7-chloro-1-naphthyl)-3-pentyl]-imidazole-4-carboxamide (Example 12) Test Method:
The reaction velocity (V) is measured by a change in absorbance at 265 nm (A265) resulting from the deamination of adenosine. Human ADA was expressed and purified from ADA-deficient bacterial strain. Reaction mixtures of a total volume of 200 μl contained 0.16 μg/ml of ADA and 0.1 mM of adenosine and test compound in 10 mM phosphate buffer saline (pH 7.4). The reaction was started by addition of ADA to a mixture of adenosine and test compound. The reaction was followed at room temperature by recording decrease in A265 for 3 minutes in SPECTRAmax 250 (Molecular Devices, USA) to automatically calculate Vmax. Inhibitory potency of test compound was expressed as IC50 value, the drug concentration required to produce 50% inhibition of Vmax in comparison to vehicle treatment.

`C[C@H](O)[C@@H](CCc1cccc2ccc(Cl)cc12)n1cnc(C(N)=O)c1` [Example 12, 1-[(2S,3R)-2-hydroxy-5-(7-chloro-1-naphthyl)-3-pentyl]imidazole-4-carboxamide] showed a half-inhibitory concentration (IC50) of under 20 nM.

For the molecule `C[C@H](O)[C@@H](CCc1ccccc1OCCCc1ccc(Cl)cc1)n1cnc(C(N)=O)c1` [Example 8, 1-{(2S,3R)-2-hydroxy-5-[2-(3-(4-chlorophenyl)propoxy)phenyl]-3-pentyl}imidazole-4-carboxamide], the IC50 was under 20 nM.
